PubChem BioAssay (NCI)
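Test compounds were applied to cells in 96-well plates for 48 hours at 5 doses. GI50 = concentration required for 50% inhibition of growth. TGI is the concentration that stops growth completely.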

Tests used:
Test in all cases: inhibition of tumour cell growth, NCI panel, 48 h
OVCAR-4 ovarian = test system: OVCAR-4 ovarian
786-0 renal = test system: 786-0 renal
OVCAR-8 ovarian = test system: OVCAR-8 ovarian
HOP-62 NSCLC = test system: HOP-62 NSCLC
OVCAR-3 ovarian = test system: OVCAR-3 ovarian
MOLT-4 leukemia = test system: MOLT-4 leukemia
A549 NSCLC = test system: A549 NSCLC
CCRF-CEM leukemia = test system: CCRF-CEM leukemia
SK-MEL-2 melanoma = test system: SK-MEL-2 melanoma
NCI-H23 lung = test system: NCI-H23 lung

| SMILES | TGI (OVCAR-4 ovarian) | TGI (786-0 renal) | TGI (OVCAR-8 ovarian) | TGI (HOP-62 NSCLC) | TGI (OVCAR-3 ovarian) | TGI (MOLT-4 leukemia) | TGI (A549 NSCLC) | TGI (CCRF-CEM leukemia) | TGI (SK-MEL-2 melanoma) | TGI (NCI-H23 lung) | GI50 (OVCAR-4 ovarian) | GI50 (OVCAR-8 ovarian) | GI50 (HOP-62 NSCLC) | GI50 (OVCAR-3 ovarian) | GI50 (CCRF-CEM leukemia) | GI50 (SK-MEL-2 melanoma) | GI50 (NCI-H23 lung) |
| --- | --- | --- | --- | --- | --- | --- | --- | --- | --- | --- | --- | --- | --- | --- | --- | --- | --- |
| COc1cccc(OC/C(N=Cc2ccncc2)=N/NC(=O)c2ccncc2)c1 | > 100 µM | > 100 µM | > 100 µM | > 100 µM | > 100 µM | > 100 µM | > 100 µM | > 100 µM | > 100 µM | > 100 µM |  |  |  |  |  |  |  |
| CCCCN(CCCC)C1=Nc2ccccc2-n2c(nnc2C(=O)OCC)C1 | > 100 µM | > 100 µM | > 100 µM | > 100 µM | > 100 µM | 84.1 µM | > 100 µM | > 100 µM |  | > 100 µM |  |  |  |  |  |  |  |
| COc1c(-c2ccc(F)cc2)oc2cc(O)cc(O)c2c1=O |  | 99.2 µM | 69.4 µM | 38.4 µM | > 100 µM | > 100 µM | > 100 µM | 95.3 µM | 64.3 µM | 78.2 µM |  |  |  |  |  |  |  |
| COC(=O)c1c(C)cccc1C1CN=NC12Cc1cccc(C)c1C2=O (configuration not stated) | > 100 µM | > 100 µM | > 100 µM | > 100 µM |  |  | 66.8 µM | 71.1 µM | 94.7 µM | > 100 µM |  |  |  |  |  |  |  |
| COC(C/C=C\C=C\CC/C=C/CC(C)/C=C/C(=C\C(=O)O)CC(=O)O)/C(C)=C\C=C(/C)C(=O)O (configuration not stated) | > 100 µM |  |  | > 100 µM | > 100 µM | > 100 µM | > 100 µM | > 100 µM | > 100 µM | > 100 µM |  |  |  |  |  |  |  |
| CCC(=O)Nc1ccc(N2C(=O)/C(=C/c3ccc(O)c(OC)c3)N=C2c2ccccc2)cc1 | > 100 µM | 95.6 µM | > 100 µM | > 100 µM | > 100 µM | > 100 µM | > 100 µM | > 100 µM | 93.5 µM | > 100 µM |  |  |  |  |  |  |  |
| O=P1(N(CCCl)CCCl)NCCCO1 (configuration not stated) | > 250 µM | > 250 µM | > 238 µM | > 250 µM | > 250 µM | > 250 µM | > 239 µM | 213 µM | > 238 µM | > 250 µM |  |  |  |  |  |  |  |
| O=c1[nH]nc(N/N=C\c2ccc(Cl)cc2)c2ccccc12 | > 100 µM | 30.6 µM | 54.8 µM |  | 30.2 µM | > 100 µM | 41.6 µM | > 100 µM | 37 µM | 40.1 µM |  |  |  |  |  |  |  |
| C/C(=C\COP(=O)(O)OP(=O)(O)O)CC/C=C(\C)CNc1ccccc1 |  | > 50 µM | > 50 µM | > 50 µM |  | > 50 µM | > 50 µM | 10.3 µM | > 50 µM |  |  |  |  |  |  |  |  |
| C=C1CN=C(Nc2ccc(F)cc2F)S1 | > 100 µM | > 100 µM | > 100 µM | > 100 µM |  | 96.5 µM | > 100 µM | 66.1 µM | > 100 µM | > 100 µM |  |  |  |  |  |  |  |
| NNc1nnc(-c2ccccc2)nc1Cc1ccccc1 | > 100 µM |  | 39.1 µM | 9.45 µM | > 100 µM | > 100 µM | > 100 µM | > 100 µM | > 100 µM | > 100 µM |  |  |  |  |  |  |  |
| COc1ccc(C(=O)/C=C/c2ccc(OCCCOc3ccc(/C=C/C(=O)c4ccc(OC)c(OC)c4)cc3)cc2)cc1OC | > 100 µM | > 100 µM | > 100 µM | > 100 µM |  | > 100 µM | > 100 µM | > 100 µM | > 100 µM |  |  |  |  |  |  |  |  |
| CCOC(=O)COC1=Nc2cc(OC)c(OC)c3nc(Cl)cc(c23)C1=O | 3.14 µM | 3.04 µM | 9.8 µM | 7.97 µM |  | 5.91 µM | 18.3 µM |  | 4.09 µM | 5.3 µM |  |  |  |  |  |  |  |
| CCn1c(SCc2nnc(Nc3ccccc3)s2)nc2ccccc2c1=O | 5 µM | 3.97 µM | 5.09 µM | 12.5 µM | 41.2 µM | > 100 µM | 19.3 µM | > 85.7 µM | 32 µM | 19.4 µM |  |  |  |  |  |  |  |
| Cc1sc2nc3n(sc4nc5sc(C)c(C)c5c(=O)n43)c(=O)c2c1C | > 100 µM | > 100 µM | > 100 µM |  | > 100 µM | 52 µM | > 100 µM | 45.1 µM | > 100 µM | > 100 µM |  |  |  |  |  |  |  |
| S=c1oc(CCCCCCCCc2nn(CNc3ccc(Cl)cc3)c(=S)o2)nn1CNc1ccc(Cl)cc1 | > 100 µM | > 100 µM |  | 76.1 µM |  | > 100 µM | > 100 µM |  | > 100 µM | > 100 µM |  |  |  |  |  |  |  |
| CCOC(=O)/C(C1=N[C@H](C(=O)OCC)CS1)=C(\O)c1ccccc1 | > 100 µM |  | > 100 µM | > 100 µM | > 100 µM | > 100 µM | > 100 µM | > 100 µM | > 100 µM | > 100 µM |  |  |  |  |  |  |  |
| COc1ccc(-c2cc(-c3ccc(OC)c(OC)c3)nc(SCCCC(=O)NO)n2)cc1 | > 100 µM |  | > 100 µM | 6.47 µM | 5.46 µM |  |  | > 100 µM | 5.85 µM | 6.16 µM | 2.02 µM | 0.782 µM | 1.47 µM | 1.69 µM | 1.36 µM | 2.14 µM | 1.96 µM |
| CCCOC1OC(CS(=O)(=O)O)C(OC(C)=O)C(OC(C)=O)C1OC(C)=O (configuration not stated) | > 100 µM |  | > 100 µM | > 100 µM | > 100 µM | > 100 µM |  | > 100 µM | > 100 µM | > 100 µM |  |  |  |  |  |  |  |
| C=C(C)[C@@H]1CC[C@]2(C(=O)OC3OC(COC4OC(CO)C(OC5OC(C)C(O)C(O)C5O)C(O)C4O)C(O)C(O)C3O)CC[C@]3(C)[C@H](CC[C@@H]4[C@@]5(C)CC[C@H](O)[C@@](C)(CO)[C@@H]5CC[C@]43C)[C@@H]12 (some centres not stated) | > 10 µM | > 10 µM | > 10 µM | > 10 µM | 5.16 µM |  | > 10 µM |  | 6.22 µM | > 5.57 µM |  |  |  |  |  |  |  |
| O=c1oc2ccccc2c(O)c1C(c1ccc(O)cc1)c1c(O)c2ccccc2oc1=O | > 100 µM | > 100 µM | > 100 µM | > 100 µM | > 100 µM |  |  | > 100 µM | > 100 µM | > 100 µM |  |  |  |  |  |  |  |
